{"source": "paper PMC6385203", "about": "“Mutations in the palm domain disrupt modulation of acid-sensing ion channel 1a currents by neuropeptides” (Scientific Reports, 2019)", "molecular_target": "T1, ASIC1a F302A (Homo sapiens, UniProt P78348, F302A)", "T1 construct": "expressed in transfected cells; host or cells: Xenopus laevis oocytes injected with cRNA", "T1 sequence (P78348 1-528 F302A)": "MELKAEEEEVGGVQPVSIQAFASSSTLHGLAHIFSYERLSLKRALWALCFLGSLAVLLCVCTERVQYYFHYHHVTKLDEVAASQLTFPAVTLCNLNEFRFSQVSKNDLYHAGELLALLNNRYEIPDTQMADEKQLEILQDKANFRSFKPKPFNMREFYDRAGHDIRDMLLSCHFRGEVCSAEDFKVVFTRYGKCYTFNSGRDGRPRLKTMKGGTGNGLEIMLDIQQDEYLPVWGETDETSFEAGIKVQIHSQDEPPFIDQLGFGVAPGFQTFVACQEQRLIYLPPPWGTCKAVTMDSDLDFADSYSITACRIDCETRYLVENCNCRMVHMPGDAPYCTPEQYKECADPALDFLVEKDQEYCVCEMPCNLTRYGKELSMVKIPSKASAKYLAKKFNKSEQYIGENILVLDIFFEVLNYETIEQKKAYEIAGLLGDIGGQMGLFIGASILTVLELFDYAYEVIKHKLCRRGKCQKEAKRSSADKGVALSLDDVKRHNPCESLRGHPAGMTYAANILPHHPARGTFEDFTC", "test": "Isust/Ipeak, TEVC in Xenopus oocytes", "type": "cell-based", "details": "pH5, n = 8–10, mean ± SEM, read-out: EC50 of FRRFa-mediated sustained current induction", "text": "To scan the pocket and predicted entrance area with mutagenesis, we chose the residues with a potential to form hydrophobic (Ile312, Val187), aromatic (Phe 257, Phe301, Phe302) or electrostatic (Glu254, Asp303, Ser199, Asp253, Glu315) interactions with the peptide. For this analysis, we used mutation to Ala, and complemented the scan with mutation to Cys and subsequent chemical modification only for a selected residue. […] Phe302 is part of a loop connecting palm and thumb domains in the close neighbourhood of the thumb base. The observed increased Isust/Ipeak ratio of F302A (Fig. 4b,e) could simply be due to a better accessibility of the cavity of the putative RFa binding site in the thumb base, because Phe302 has a larger side chain than has Ala to which it was mutated. To test this hypothesis, we mutated Phe302 to Cys and exposed the mutant to the sulfhydryl reagent trimethylammonium-methyl methanethiosulfonate ([…]; 1 mM during 3 min) before the exposure to FRRFa. […]\nElectrophysiological measurements were performed 1–2 days after cRNA injection. Ion currents were recorded using two-electrode voltage-clamp at a holding potential of −60 mV with a Dagan TEV-200 amplifier (Minneapolis, MN). […] The amplitude of the sustained current was measured in the last two seconds of the pH5 perfusion. […]", "note": "Peptide text beside a SMILES is read from it."}
{"smiles": "N=C(N)NCCC[C@H](NC(=O)[C@H](CCCNC(=N)N)NC(=O)[C@@H](N)Cc1ccccc1)C(=O)N[C@@H](Cc1ccccc1)C(N)=O", "note": "[FRRFa, Phe-Arg-Arg-Phe-amide] (H-FRRF-NH2)", "values": [{"measurement": "EC50", "result": "11 ± 2", "unit": "µM"}]}
